Data published in patent publication US8163909B2, “Substituted hydroxyethyl amine compounds as beta-secretase modulators and methods of use” (Amgen Inc., priority 2007, dated 2012).
Where two headings read alike, the source gives them in different places.

Tests used:
Abeta peptide = experiment: In vivo inhibition of beta-secretase (reduction of Abeta peptide in brain and cerebrospinal fluid); design: species or system rat; conditions: Rattus norvegicus, po, 4 h, orally administered at 30 mg/kg dose, measured after 4 hours;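 note: abeta peptide quantified by sandwich ELISA with electrochemiluminescence readout in rat brain supernatant or CSF, relative to vehicle-dosed control animals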
[1] = biological target: Beta Secretase enzyme (BACE) (Homo sapiens, UniProt P56817); experiment: In vitro enzymatic BACE FRET (fluorescence resonance energy transfer) assay; assay type: biochemical;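 note: fluorescence read after 1 h with 50 nM quenched peptide substrate spanning the BACE cleavage site, in pH 4.2 acetate buffer containing 10% DMSO and nonionic detergent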
CYP3A4 (CYP3A) = CYP3A4 (CYP3A) (Homo sapiens, UniProt P08684); experiment: in vitro; conditions: microsomes, pH 7.4
CYP2D6 = CYP2D6 (Homo sapiens, UniProt P10635); experiment: CYP2D6 inhibition assay (bufuralol, pooled human liver microsomes)
[2] = Microsomal stability assay, rat liver microsomes;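 note: rat liver microsomes (0.25 mg/mL) with about 1 µM compound plus 1 mM NADPH, pH 7.4, 37 °C for 30 min, parent left measured by LC-MS/MS against 0 min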
[3] = system: Aβ40 in conditioned medium of cells stably expressing Amyloid Precursor Protein (APP); experiment: In vitro BACE cell-based assay (Aβ40 in conditioned medium, sandwich ELISA); conditions: Homo sapiens;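 note: compounds added as a dilution series, secreted peptide quantified by europium time-resolved fluorescence readout, potency fitted from percent of control versus compound concentration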
[4] = Microsomal stability assay, human liver microsomes;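 note: pooled human liver microsomes at 0.25 mg/mL with 1 µM compound and NADPH at 37 °C, pH 7.4, for 30 min, unchanged parent quantified by LC-MS/MS against the 0 min sample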
[5] = rat cerebrospinal fluid, read-out: percent reduction of abeta peptide in the cerebrospinal fluid of the rat
[6] = 2D6 IC50 (uM), CYP enzyme inhibition
[7] = read-out: BACE1 FRET assay (IC50)
[8] = HEK293, HEK cells, read-out: HEK cell assay (IC50)
[9] = BACE enzyme assay, IC50's in uM, read-out: BACE1 FRET assay
[10] = BACE enzyme assay IC50, read-out: BACE1 FRET assay
[11] = 2D6 IC50 (uM), CYP2D6 inhibition
[12] = HEK293, HEK cell-based assay IC50, read-out: HEK cell assay
[13] = HEK293, HEK cell-based assay, IC50's in uM, read-out: HEK cell assay

Sequence of CYP3A4 (CYP3A) (P08684 2-503): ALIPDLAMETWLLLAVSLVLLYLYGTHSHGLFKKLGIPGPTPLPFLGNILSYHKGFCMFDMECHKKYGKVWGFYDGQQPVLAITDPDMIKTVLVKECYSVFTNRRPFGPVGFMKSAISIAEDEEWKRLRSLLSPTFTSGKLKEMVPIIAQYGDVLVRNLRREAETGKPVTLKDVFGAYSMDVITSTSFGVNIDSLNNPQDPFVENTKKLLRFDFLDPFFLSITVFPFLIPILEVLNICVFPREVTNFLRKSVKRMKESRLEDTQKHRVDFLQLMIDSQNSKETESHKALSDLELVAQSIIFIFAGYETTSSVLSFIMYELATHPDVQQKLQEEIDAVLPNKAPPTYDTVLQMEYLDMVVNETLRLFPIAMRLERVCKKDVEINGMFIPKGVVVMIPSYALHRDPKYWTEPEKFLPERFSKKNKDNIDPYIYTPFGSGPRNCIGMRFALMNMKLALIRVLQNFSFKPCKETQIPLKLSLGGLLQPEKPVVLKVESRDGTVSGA
Sequence of CYP2D6 (P10635 whole entry): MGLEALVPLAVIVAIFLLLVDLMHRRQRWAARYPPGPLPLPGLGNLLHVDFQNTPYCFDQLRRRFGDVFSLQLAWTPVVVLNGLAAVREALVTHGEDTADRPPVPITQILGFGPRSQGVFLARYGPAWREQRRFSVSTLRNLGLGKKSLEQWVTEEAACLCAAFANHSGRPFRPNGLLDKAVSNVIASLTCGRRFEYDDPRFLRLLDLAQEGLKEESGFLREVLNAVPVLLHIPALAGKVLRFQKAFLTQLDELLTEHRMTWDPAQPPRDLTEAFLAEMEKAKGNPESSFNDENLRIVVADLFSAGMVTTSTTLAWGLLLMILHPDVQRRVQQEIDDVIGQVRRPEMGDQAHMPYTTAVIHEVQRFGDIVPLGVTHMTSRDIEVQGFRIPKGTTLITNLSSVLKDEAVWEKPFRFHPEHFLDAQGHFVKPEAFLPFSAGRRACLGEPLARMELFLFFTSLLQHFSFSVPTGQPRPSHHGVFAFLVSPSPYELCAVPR
Sequence of Beta Secretase enzyme (BACE) (P56817 46-501): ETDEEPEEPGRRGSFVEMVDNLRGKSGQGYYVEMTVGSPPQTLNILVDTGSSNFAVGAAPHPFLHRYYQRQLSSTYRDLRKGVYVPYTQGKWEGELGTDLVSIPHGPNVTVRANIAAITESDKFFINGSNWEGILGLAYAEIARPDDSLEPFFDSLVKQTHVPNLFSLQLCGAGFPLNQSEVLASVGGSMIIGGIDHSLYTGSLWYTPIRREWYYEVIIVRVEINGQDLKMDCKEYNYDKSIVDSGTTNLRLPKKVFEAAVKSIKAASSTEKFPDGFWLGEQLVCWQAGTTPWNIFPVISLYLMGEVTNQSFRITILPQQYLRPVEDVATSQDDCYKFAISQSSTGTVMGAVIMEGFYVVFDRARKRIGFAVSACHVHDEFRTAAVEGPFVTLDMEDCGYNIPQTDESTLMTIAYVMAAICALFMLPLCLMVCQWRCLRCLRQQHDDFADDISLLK

## CO[C@H](C)C(=O)N[C@@H](Cc1cccc(F)c1)[C@H](O)CN[C@H]1CC2(CCC2)Oc2c1cc(CC(C)C)cc2-n1ccnc1 [Example 521]
Abeta peptide; [5]
  inhibition in vivo at 30 mg/kg: 10 to 80%
[1]; BACE enzyme assay, read-out: BACE1 FRET assay
  IC50: 0.019 µM
CYP3A4 (CYP3A)
  IC50: 100 nM
CYP2D6; [6]
  IC50: 1.9 µM
[2]; rat liver microsomal data
  RLM: 142 µL/min/mg
[3]; HEK293, HEK cells, read-out: HEK cell assay
  IC50: 0.015 µM
[4]; human liver microsomal data
  HLM: 27 µL/min/mg

## COCC(=O)N[C@@H](Cc1cc(F)cc(F)c1)[C@H](O)CN[C@H]1CC2(CCC2)Oc2c1cc(CC(C)(C)C)nc2-c1nccn1C [Example 596]
Abeta peptide; [5]
  inhibition in vivo at 30 mg/kg: 10 to 80%
[1]; [7]
  IC50: 0.041 µM
CYP3A4 (CYP3A)
  IC50: 100 nM
CYP2D6; 2D6 IC50, CYP2D6 inhibition
  IC50: 2.9 µM
[2]; rat liver microsomes
  RLM: 39 µL/min/mg
[3]; [8]
  IC50: 0.009 µM
[4]; human liver microsomes
  HLM: 26 µL/min/mg

## COCC(=O)N[C@@H](Cc1cccc(C#N)c1)[C@H](O)CN[C@H]1CC2(CCC2)Oc2c(-c3ccncc3)cc(CC(C)(C)C)cc21 [Example 636]
Abeta peptide; [5]
  inhibition in vivo at 30 mg/kg: 10 to 80%
[1]; [7]
  IC50: 0.008 µM
CYP3A4 (CYP3A)
  IC50: 100 nM
CYP2D6; 2D6 IC50, CYP2D6 inhibition
  IC50: 3 µM
[2]; rat liver microsomes
  RLM: 90 µL/min/mg
[3]; [8]
  IC50: 0.005 µM
[4]; human liver microsomes
  HLM: 32 µL/min/mg

## CC(C)(C)Cc1cnc2c(c1)[C@@H](NC[C@@H](O)[C@H](Cc1cc(F)cc(-c3nccs3)c1)NC(=O)[C@@H]1CCCO1)CC1(CCC1)O2 [Example 879]
Abeta peptide; rat brain, read-out: percent reduction of abeta peptide in the brain of the rat
  inhibition in vivo at 30 mg/kg: 5 to 80%
[1]; [9]
  IC50: 0.006 µM
CYP3A4 (CYP3A)
  IC50: 200 nM
CYP2D6; human, pooled human liver microsomes, pH 7.4, probe bufuralol, about 5 μM, 2D6 IC50, CYP enzyme inhibition
  IC50 at 10 min: 600 nM
[2]; rat liver microsomal data
  RLM: 77 µL/min/mg
[3]; HEK293, cell-based assay, HEK cells, IC50's in uM, read-out: HEK cell assay
  IC50: 0.007 µM
[4]; human liver microsomal data
  HLM: 96 µL/min/mg

## CC(=O)N[C@@H](Cc1cc(F)cc(F)c1)[C@H](O)CN[C@H]1CC2(CCC2)Oc2c(-c3ccncc3)cc(CC(C)C)cc21 [Example 673]
Abeta peptide; [5]
  inhibition in vivo at 30 mg/kg: 10 to 80%
[1]; [10]
  IC50: 0.009 µM
CYP3A4 (CYP3A)
  IC50: ≤ 30 nM
CYP2D6; [11]
  IC50: 0.8 µM
[2]; rat liver microsomes
  RLM: 118 µL/min/mg
[3]; [12]
  IC50: 0.005 µM
[4]; human liver microsomes
  HLM: 46 µL/min/mg

## CO[C@H](C)C(=O)N[C@@H](Cc1cc(F)cc(F)c1)[C@H](O)CN[C@H]1CC2(CCC2)Oc2c1cc(CC(C)C)nc2-c1cncn1C [Example 710]
Abeta peptide; [5]
  inhibition in vivo at 30 mg/kg: 10 to 80%
[1]; [10]
  IC50: 0.026 µM
CYP3A4 (CYP3A)
  IC50: 100 nM
CYP2D6; [11]
  IC50: 2.8 µM
[2]; rat liver microsomes
  RLM: 39 µL/min/mg
[3]; [12]
  IC50: 0.018 µM
[4]; human liver microsomes
  HLM: 16 µL/min/mg

## CO[C@H](C)C(=O)N[C@@H](Cc1cccc(-c2ncco2)c1)[C@H](O)CN[C@H]1CC2(CCC2)Oc2ncc(CC(C)(C)C)cc21 [Example 836, (2R)-N-((1S,2R)-3-(((4′S)-6′-(2,2-dimethylpropyl)-3′,4′-dihydrospiro[cyclobutane-1,2′-pyrano[2,3-b]pyridin]-4′-yl)amino)-2-hydroxy-1-(3-(1,3-oxazol-2-yl)benzyl)propyl)-2-methoxypropanamide]
Abeta peptide; [5]
  inhibition in vivo at 30 mg/kg: 10 to 80%
[1]; [9]
  IC50: 0.013 µM
CYP3A4 (CYP3A)
  IC50: 200 nM
CYP2D6; [6]
  IC50: 0.7 µM
[2]; rat liver microsomal data
  RLM: 56 µL/min/mg
[3]; [13]
  IC50: 0.015 µM
[4]; human liver microsomal data
  HLM: 56 µL/min/mg

## C#Cc1cccc(C[C@H](NC(=O)C(OC)OC)[C@H](O)CN[C@H]2CC3(CCC3)Oc3ncc(CC(C)(C)C)cc32)c1 [Example 844]
Abeta peptide; [5]
  inhibition in vivo at 30 mg/kg: ≥ 50%
[1]; [9]
  IC50: 0.005 µM
CYP3A4 (CYP3A)
  IC50: 100 nM
CYP2D6; [6]
  IC50: 1.5 µM
[2]; rat liver microsomal data
  RLM: 44 µL/min/mg
[3]; [13]
  IC50: 0.006 µM
[4]; human liver microsomal data
  HLM: 32 µL/min/mg

## COCC(=O)N[C@@H](Cc1ccncc1)[C@H](O)CN[C@H]1CC2(CCC2)Oc2c(-c3ccncc3)cc(CC(C)C)cc21 [Example 628]
Abeta peptide; [5]
  inhibition in vivo at 30 mg/kg: 10 to 80%
[1]; [7]
  IC50: 0.045 µM
CYP3A4 (CYP3A)
  IC50: 100 nM
CYP2D6; 2D6 IC50, CYP2D6 inhibition
  IC50: 1.9 µM
[2]; rat liver microsomes
  RLM: 239 µL/min/mg
[3]; [8]
  IC50: 0.007 µM
[4]; human liver microsomes
  HLM: 94 µL/min/mg
